Source: patent publication US20230233690A1, “ANDROGEN RECEPTOR PROTEIN DEGRADERS” (THE REGENTS OF THE UNIVERSITY OF MICHIGAN, priority 2020, published 2023)

Experiments:
AR protein [1] = assay: Western blotting of AR protein degradation in MDA-MB-453 cells; format: cell-based; parameters: key: A: >90% degradation (24 hr treatment); B: >50% degradation but <90% (24 hr treatment); C: >10% degradation but <50% (24 hr treatment); D: No significant degradation (24 hr treatment); settings: 24 hr treatment
Procedure: The appropriate cell line, e.g., prostate cancer LNCaP, Vcap, or MDA-MB-453 cell line, was treated with Compounds of the Disclosure. The treated cells were lysed with RIPA buffer. The AR level in the cell lysates was examined by western blotting and a specific AR antibody (ab194196, Abcam, Cambridge, Mass. 02139) with concentration of 1:20,000. GAPDH was used as a loading control.
(§1) Bands were quantified with ImageJ software. The relative numbers of each band obtained from normalization with its corresponding GAPDH level were compared with Prism 8 software. The DC50 values were produced from Prism 8, and the DC90 values were calculated with an equation=Bottom+(Top−Bottom)/(1+10^((Log EC50−X)*HillSlope) based on DC50 and Hillslope values.
The amount of AR protein degradation in LNCaP, VCap, and MDA-MB-453 cells caused representative Compounds of the Disclosure at the concentrations indicated is presented in Table 4 and Table 5.

[2] = PK parameters in male ICR mice; format: in vivo
Procedure: (§2) The pharmacokinetics (PK) of representative Compounds of the Disclosure were evaluated in mice or rats to provide an assessment of their oral bioavaibility. All animal experiments were performed under the guidelines of the University of Michigan Committee for Use and Care of Animals and using an approved animal protocol.

[3] = PK parameters in male mice (Table 9); format: in vivo
Procedure: as §2

AR protein [4] = target: T1, AR protein (Homo sapiens, UniProt P10275); assay: Western blotting of AR protein degradation in VCaP cells; format: cell-based
T1 construct: endogenous in cells; host or cells: VCaP
T1 sequence (P10275 1-920): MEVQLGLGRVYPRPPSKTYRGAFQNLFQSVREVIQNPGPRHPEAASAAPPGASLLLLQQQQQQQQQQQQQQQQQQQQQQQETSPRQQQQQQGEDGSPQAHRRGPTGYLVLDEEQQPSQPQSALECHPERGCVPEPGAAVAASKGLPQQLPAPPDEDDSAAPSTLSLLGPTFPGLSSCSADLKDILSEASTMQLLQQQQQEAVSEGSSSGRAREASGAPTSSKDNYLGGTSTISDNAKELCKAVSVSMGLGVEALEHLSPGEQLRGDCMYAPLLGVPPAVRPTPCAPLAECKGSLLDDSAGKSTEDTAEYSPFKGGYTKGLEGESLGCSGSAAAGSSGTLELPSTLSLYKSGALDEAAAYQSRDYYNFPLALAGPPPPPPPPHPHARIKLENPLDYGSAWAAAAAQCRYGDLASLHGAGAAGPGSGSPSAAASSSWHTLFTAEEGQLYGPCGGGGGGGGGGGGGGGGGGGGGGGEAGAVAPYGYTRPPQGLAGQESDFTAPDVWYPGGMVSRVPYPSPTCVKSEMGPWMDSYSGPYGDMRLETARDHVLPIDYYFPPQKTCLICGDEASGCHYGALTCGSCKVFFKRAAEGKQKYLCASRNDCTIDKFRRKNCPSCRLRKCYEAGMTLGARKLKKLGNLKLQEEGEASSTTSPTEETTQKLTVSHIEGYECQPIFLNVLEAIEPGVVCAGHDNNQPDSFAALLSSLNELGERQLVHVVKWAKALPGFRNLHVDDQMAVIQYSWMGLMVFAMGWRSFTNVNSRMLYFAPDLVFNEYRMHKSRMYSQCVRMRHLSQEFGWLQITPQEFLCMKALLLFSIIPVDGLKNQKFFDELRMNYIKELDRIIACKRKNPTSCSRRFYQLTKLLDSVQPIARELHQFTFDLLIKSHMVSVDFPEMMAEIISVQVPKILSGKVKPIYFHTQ
Procedure: The treated cells were lysed with RIPA buffer. […] GAPDH was used as a loading control.
as §1

Row | Structure (SMILES) | AR protein degradation MDA-MB-453 100 nM (AR protein [1]) | AUC(0-t) ([2]; IV 1 mg/kg) [ng·h/mL] | Cl-obs ([2]; IV 1 mg/kg) [mL/min/kg] | Vss ([2]; IV 1 mg/kg) [L/kg] | AUC(0-t) ([2]; PO 3 mg/kg) [ng·h/mL] | Cmax ([2]; PO 3 mg/kg) [ng/mL] | F ([2]; PO 3 mg/kg) [%] | T1/2 ([2]; PO 3 mg/kg) [h] | other results
1 | N#Cc1ccc(O[C@H]2CC[C@H](Oc3ccc(C4CCN(CC5CCN(c6cccc7c6C(=O)N(C6CCC(=O)NC6=O)C7=O)CC5)CC4)cc3)CC2)cc1Cl (stereo partly shown) [compound 53] | C (>10% degradation but <50% (24 hr treatment)) |  |  |  |  |  |  |  | AR protein degradation MDA-MB-453 10 nM (AR protein [1]; 10 nM): D
2 | N#Cc1ccc(O[C@@H]2CCC[C@@H](Oc3ccc(C4CCN(CC5CCN(c6cccc7c6C(=O)N(C6CCC(=O)NC6=O)C7=O)CC5)CC4)cc3)C2)cc1Cl (stereo partly shown) [compound 54] | C (>10% degradation but <50% (24 hr treatment)) |  |  |  |  |  |  |  | 
3 | N#Cc1ccc(O[C@@H]2CCC[C@@H](Oc3ccc(N4CCN(CC5CCN(c6ccc7c(c6)C(=O)N(C6CCC(=O)NC6=O)C7=O)CC5)CC4)cc3)C2)cc1Cl (stereo partly shown) [compound 55] | C (>10% degradation but <50% (24 hr treatment)) |  |  |  |  |  |  |  | 
4 | CC1(C)[C@H](NC(=O)c2ccc(N3CCC(N4CCN(c5ccc6c(c5)C(=O)N(C5CCC(=O)NC5=O)C6=O)CC4)CC3)cc2)C(C)(C)[C@H]1Oc1ccc(C#N)c(Cl)c1 (stereo partly shown) [compound 189, N-((1r,3r)-3-(3-chloro-4-cyanophenoxy)-2,2,4,4-tetramethylcyclobutyl)-4-(4-(4-(2-(2,6-dioxopiperidin-3-yl)-1,3-dioxoisoindolin-5-yl)piperazin-1-yl)piperidin-1-yl)benzamide] |  | 4333.7 | 2.2 | 3.8 | 3127 | 207 | 24 | 12.4 | 
5 | CC1(C)[C@H](NC(=O)c2ccc(N3CCC(CN4CCN(c5ccc6c(c5)C(=O)N(C5CCC(=O)NC5=O)C6=O)CC4)CC3)cc2)C(C)(C)[C@H]1Oc1ccc(C#N)c(Cl)c1 (stereo partly shown) [compound 190, N-((1r,3r)-3-(3-chloro-4-cyanophenoxy)-2,2,4,4-tetramethylcyclobutyl)-4-(4-((4-(2-(2,6-dioxopiperidin-3-yl)-1,3-dioxoisoindolin-5-yl)piperazin-1-yl)methyl)piperidin-1-yl)benzamide] |  | 2565 | 3.2 | 6.8 | 2550.1 | 134.4 | 33.1 | 67.8 | 
6 | CN(c1ccc(C#N)c(Cl)c1)[C@H]1CC[C@H](NC(=O)c2ccc(N3CC(N4CCN(c5ccc6c(c5)C(=O)N(C5CCC(=O)NC5=O)C6=O)CC4)C3)cc2)CC1 (stereo partly shown) [compound 240, N-((1r,4r)-4-((3-chloro-4-cyanophenyl)(methyl)amino)cyclohexyl)-4-(3-(4-(2-(2,6-dioxopiperidin-3-yl)-1,3-dioxoisoindolin-5-yl)piperazin-1-yl)azetidin-1-yl)benzamide] |  |  |  |  |  |  |  |  | clearance ([3]; ICR, mouse, in vivo, IV 1 mg/kg): 3.5 mL/min/kg; AUC(0-t) ([3]; IV 1 mg/kg): 4234 ng·h/mL; T1/2 ([3]; IV 1 mg/kg): 7.5 h; Vss ([3]; IV 1 mg/kg): 2.1 L/kg; AUC(0-t) ([3]; PO 3 mg/kg): 8637 ng·h/mL; Cmax ([3]; PO 3 mg/kg): 484 ng/mL; T1/2 ([3]; PO 3 mg/kg): 26.8 h; Tmax ([3]; PO 3 mg/kg): 4.7 h; F ([3]; PO 3 mg/kg vs IV 1 mg/kg): 67%; % AR protein degradation in VCaP Cells (AR protein [4]; 0.001 μM): 82%; % AR protein degradation in VCaP Cells (AR protein [4]; 0.01 μM): 87%; % AR protein degradation in VCaP Cells (AR protein [4]; 0.1 μM): 88%; % AR protein degradation in VCaP Cells (AR protein [4]; 1 μM): 75%
